Experiments:
NMDA [1] = settings: Berry et al, Eur. J. Pharm., 96, 261-267 (1983); spinal neurones; cited from earlier work
rats = assay: Behavioral assay, stereotyped behavior in rats; format: in vivo, Male Sprague-Dawley rats; settings: for Stereotyped Behavior ED50: i.c.v., at time of maximal behavioral effect, parentheses: 95% confidence intervals
Experimental: Compound No. 1 was tested in comparison with PCP and TCP by an in vivo assay which determined stereotypic behavior in rats treated with the compounds. Male Sprague-Dawley rats weighing 200 to 250 g were used in the behavioral experiments. Each rat was used only once. Rats were anesthetized lightly with ether before a 20-gauge needle was used to make a hole in the rat's skull for i.c.v. injection of drugs at a later date. The rats were allowed to recover for at least 1 day before being used in the behavioral assays. On the day of the experiment, rats were placed individually into plastic rat cages and allowed at least 1 hr to acclimate before testing. Drugs were administered to rats in a random, single-blind fashion. Behavioral ratings were taken at 5-min intervals up to 1 hr after drug administration i.c.v. using the PCP rating scale as described by Sturgeon et al [Sturgeon, R. D., Fessler, R. G. and Meltzer, H. Y., "Behavioral Rating Scales for Accessing Phencyclidine-Induced Locomotor Activity, Stereotyped Behavior And Ataxia In Rats", European J. Pharmacol. 59 169, (1970)].
Dose-response curves for each treatment were determined at the time of maximal behavioral effect. Peak effects were found 5 min after i.c.v. administration of PCP (25-20000 nmol/rat). […] A rating of 5 in the PCP-rating scale was considered as complete stereotyped behavior, that is, a 100% response. At least 21 rats (at least seven rats/dose) were used to determine each dose-response curve and EDso values. ED50 values and dose-response curves were evaluated using a computerized Finney assay [Statistical Methods In Biological Assays, 2nd Edn., Hatner Pub. Co., New York (1964)].
The ability of the tested compounds to induce stereotyped behavior was assessed at 2.5, 5 and 10 minutes and thereafter every 5 min up to 1 hr after i.c.v., i.p., or s.c. administration.

PCP receptors = assay: Radioreceptor assay, displacement of 3H-TCP from rat brain membranes; settings: read-out: Ki apparent; units + SEM; 1 nM 3H-TCP, whole rat brain membranes, 1 hour incubation
KA = assay: NMDA/KA antagonist assay in embryo retina: blocking KA neurotoxicity; design: species or system chick embryo; settings: KA 25 μM, 30 min, 37° C.; tested from 1000 μM downward
Experimental: (§1) A 15-day old chick embryo retina, incubated for 30 min. in a balanced salt solution (BSS) containing 1 mM Glu, developed a full lesion characteristic of an immature mouse retina following s.c. administration of Glu. Other excitotoxin agonists also produce acute lesions within 30 min., each agent being effective at a concentration proportional to its known excitatory and toxic potencies. The pattern of cellular degeneration is restricted in each case to the ganglion cell, inner plexiform and inner nuclear layers, but within these areas certain agonists induce different patterns of degeneration, the differences being most pronounced between NMA and KA. Four agonists were employed in the present test, each at a concentration established previously to be the lowest concentration required to consistently cause a fully-developed retinal lesion: KA (25 μM), Quis (50 μM), NMA (200 μM) and Glu (1000 μM). Compound No. 1 and other PCP-like compounds were tested at various concentrations for their ability to prevent KA, Quis, NMA or Glu neurotoxicity. […] Internal controls in each experiment consisted of at least six specimens being incubated with agonist alone. A typical toxic reaction had to be present in all controls and absent from all experimental specimens in order to qualify as a blocking effect. The method of tissue preparation was as follows: 15-day old chick embryos were decapitated and their eyes removed and cut into quadrants after excising the cornea and removing the lens, vitreous and iris. The retinal quadrants were then gently separated from the pigment epithelium and incubated for 30 min. at 37° C. in BSS to which an agonist or agonist plus antagonist was added. The BSS contained 140 mMNa^+, 5.0 mM K^+, 0.5 mM Ca^++, 4.5 mM Mg^++, 150 mM Cl^-, 5.6 mM glucose and bicarbonate/phosphate buffer (pH 7.3). […]

Quis = assay: NMDA/KA antagonist assay in embryo retina: blocking Quis neurotoxicity; design: species or system chick embryo; settings: Quis 50 μM, 30 min, 37° C.; footnote: @ up to 500 μM
Experimental: as §1

hippocampal neurons [2] = assay: Glutamate neurotoxicity assay (MTT neuronal survival); format: cell-based, Sprague-Dawley rats; settings: for Protection from glutamate toxicity: 500 μM glutamate, 1 hour; for Optical Density (MTT, viable cells): units + SDM, 500 μM glutamate 1 hour, control 0.163, glutamate 0.092
Experimental: (§2) Compound No. 1 was tested for its ability to protect hippocampal neurons from hypoxia-induced cell death. Cultures of hippocampal neurons were prepared from embryonic day 17 Sprague-Dawley rats. The hippocampi were dissociated into a single cell suspension by incubation with 0.25% trypsin, 40 mg/ml DNase followed by gentle trituration through a Pasteur pipet. The cells were plated in a polylysine-coated 96-well plate and maintained in a chemically defined medium until use. The cells were grown for 2 to 3 weeks in 5% CO2 -in-air humidified environment at 36° C. to establish a thick network of neuronal processes with numerous spontaneously active synapses. Exposure to hypoxic/anoxic environment was accomplished by placing the cultures in an anaerobic chamber, and flushing it with a mixture of 95% N2 +5% CO2 gas to rapidly drop the O2 tension to near zero. The O2 tension was maintained at near zero using a disposable H2 +CO2 generator envelope with palladium catalyst. Compound No. 1 was added to the culture medium prior to incubation in the anaerobic chamber and maintained there for 6 hours. Following 2 hours of exposure to normal O2 tension, the cultures were processed for morphological and quantitive biochemical neuronal cell viability assays.
The neuronal survival assay utilized the compound MTT [(3-(4,5-dimethylthiazol-2-yl)-2,5-diphenyl tetrazolium bromide)], a pale yellow substrate that is cleaved by the mitochondrial enzyme succinate-dehydrogenase to yield a dark blue formazan product. This process requires active mitochondria, present only in live cells. Cultures of hippocampal neurons grown in 96-well plates were incubated with 1 mg/ml MTT at 36° C. in a 10% CO2 -in-air incubator for 30-60 min. At the end of the incubation, a dark blue precipitate outlined only viable cells. The precipitate was then solubilized using 0.08N HCl/isopropanol mixture and the absorbance measured with an ELISA plate reader (Dynatech MR600) using a test wavelength of 570 nm and a reference wavelength of 630 nm. The resulting optical density is directly proportional to the number of viable cells.
Compound No. 1 was tested for its ability to protect neurons from glutamate-induced neurotoxicity, which selectively kills mature neurons while sparing glial cells. Neuronal cells were prepared and cell viability assays were performed as described in the chronic hypoxia insult assay, above.
Hippocampal cultures were exposed to 500 μM glutamate for 1 hour either in the presence or absence of Compound No. 1 and immediately thereafter processed for qualitative (morphological) and quantitative viability assay.

hippocampal neurons [3] = assay: Acute azide toxicity assay (MTT neuronal survival); format: cell-based, Sprague-Dawley rats
NMA = assay: NMDA/KA antagonist assay in embryo retina: blocking NMA neurotoxicity; design: species or system chick embryo; settings: NMA 200 μM, 30 min, 37° C.
Experimental: as §1

hippocampal neurons [4] = assay: Chronic hypoxic insult assay (MTT neuronal survival); format: cell-based, Sprague-Dawley rats
Experimental: as §2, with “Exposure to hypoxic/anoxic environment was accomplished by placing the cultures in an anaerobic chamber, and flushing it with a mixture of 95% N2 +5% CO2 gas to rapidly drop the O2 tension to near zero. The O2 tension was maintained at near zero using a disposable H2 +CO2 generator envelope with palladium catalyst. Compound No. 1 was added to the culture medium prior to incubation in the anaerobic chamber and maintained there for 6 hours.” left out
The neuronal survival assay utilized the compound MTT [(3-(4,5-dimethylthiazol-2-yl)-2,5-diphenyl tetrazolium bromide)], a pale yellow substrate that is cleaved by the mitochondrial enzyme succinate-dehydrogenase to yield a dark blue formazan product. […] The precipitate was then solubilized using 0.08N HCl/isopropanol mixture and the absorbance measured with an ELISA plate reader (Dynatech MR600) using a test wavelength of 570 nm and a reference wavelength of 630 nm. […]

NMDA [5] = settings: Anis et al, Br. J. Pharmacol., 79, 565 (1983); cited from earlier work
[6] = system: [^3 H]PCP binding sites, rat cerebral cortical membranes; settings: Goldman et al, FEBS Lett., 170, 333-336 (1985); cited from earlier work

| SMILES | Stereotyped Behavior ED50 (rats) | Ki (PCP receptors) [nM] | Protection vs KA (KA) | Protection vs Quis (Quis) | Minimal concentration required to provide total protection vs NMA (NMA) [µM] | further results |
| --- | --- | --- | --- | --- | --- | --- |
| CC1CCC(c2ccccc2)(N2CCCCC2)CC1 (stereo not drawn) [cis-N-(1-phenyl-4-methylcyclohexyl)piperidine] | – | – | – | – | – | Stereoselective effects over isomer counterpart in reducing the excitatory action of NMDA (NMDA [1]): confirmed |
| C1=CCN(C2(c3cccs3)CCCCC2)CC1 [Compound No. 1, 1-[1-(2-thienyl)-cyclohexyl]-1,2,5,6-tetrahydropyridine] | 43 (34-57) nmol/rat | 12 ± 2 | Partial @ 5 μM | Zero @ 250 μM | 0.25 | Protection from glutamate toxicity (hippocampal neurons [2]; 5 μM compound): significant protection; Protection from glutamate toxicity (hippocampal neurons [2]; 50 μM compound): Nearly complete protection; Optical Density (MTT, viable cells) (hippocampal neurons [2]; 5 μM compound): 0.147 ± .017; Optical Density (MTT, viable cells) (hippocampal neurons [2]; 50 μM compound): 0.157 ± .017; Protection of neurons from sodium azide poisoning (hippocampal neurons [3]; 1 μM compound, 10 μM sodium azide, 1 hour): significant protection; Optical Density (MTT, viable cells) (hippocampal neurons [3]; units + SDM, sodium azide 1 hour + 1 μM compound, control 0.146, sodium azide 0.084): 0.138 ± .013; EC (maximum protection) (hippocampal neurons [4]; Rattus norvegicus, Hippocampal neuron, hypoxia 6 hours, read-out: Concentration giving maximum protection of neurons from hypoxic insult): 50 µM; Optical Density (MTT, viable cells) (hippocampal neurons [4]; units + SDM, hypoxia + 50 μM compound, 6 hours, untreated control 0.163, hypoxia 0.062): 0.173 ± .033 |
| S=C=Nc1cccc(C2(N3CCCCC3)CCCCC2)c1 [Metaphit, 1-[1-(3-isothiocyanatophenyl)cyclohexyl]piperidine] | – | – | No Activity | No Activity | 50 | – |
| CNC1(c2ccccc2Cl)CCCCC1=O (stereo not drawn) [ketamine] | – | – | – | – | – | Reduction of the excitatory effects of NMDA as compared to KA and QUIS (NMDA [5]): reduce selectively the excitatory effects of NMDA |
| CC1CCCN(C2(c3ccccc3)CCCCC2)C1 (single isomer, unassigned; (+)) [(+)-PCMP, (+)-1-(1-phenylcyclohexyl)-3-methylpiperidine] | – | – | – | – | – | Inhibition of specific binding of [^3 H]PCP [6]: potent inhibitor; Stereoselective effects over isomer counterpart in reducing the excitatory action of NMDA (NMDA [1]): confirmed |
| c1ccc(C2(N3CCCCC3)CCCCC2)cc1 [PCP, Phencyclidine] | 150 (120-180) nmol/rat | 96 ± 15 | No Activity | No Activity | 1 | Time of peak behavioral effect (rats; after i.c.v. administration, 25-20000 nmol/rat): 5 min; Time of peak behavioral effect (rats; after i.p. administration, 2.0-32 mg/kg): 15 min; Reduction of the excitatory effects of NMDA as compared to KA and QUIS (NMDA [5]): reduce selectively the excitatory effects of NMDA |
| c1csc(C2(N3CCCCC3)CCCCC2)c1 [TCP] | 56 (49-76) nmol/rat | 20 ± 6 | – | – | – | – |

— patent US5604255A, “N-(1-thienylcycloalkyl)alkenylamines for treatment of neurotoxic injury” (priority 1994, dated 1997)
